From patent US20210347727A1 (BLADE THERAPEUTICS, INC., priority 2017, published 2021)

Columns and labels:
[1] = target: T1, Human Calpain 2/NS1 (Homo sapiens, UniProt P17655); assay: Biochemical inhibition of calpain 2, continuous fluorescence (FRET substrate) assay; details: mean; read-out: Human Calpain 2/NS1 1C50 [sic] (nM)_MEAN
T1 sequence (P17655 1-700): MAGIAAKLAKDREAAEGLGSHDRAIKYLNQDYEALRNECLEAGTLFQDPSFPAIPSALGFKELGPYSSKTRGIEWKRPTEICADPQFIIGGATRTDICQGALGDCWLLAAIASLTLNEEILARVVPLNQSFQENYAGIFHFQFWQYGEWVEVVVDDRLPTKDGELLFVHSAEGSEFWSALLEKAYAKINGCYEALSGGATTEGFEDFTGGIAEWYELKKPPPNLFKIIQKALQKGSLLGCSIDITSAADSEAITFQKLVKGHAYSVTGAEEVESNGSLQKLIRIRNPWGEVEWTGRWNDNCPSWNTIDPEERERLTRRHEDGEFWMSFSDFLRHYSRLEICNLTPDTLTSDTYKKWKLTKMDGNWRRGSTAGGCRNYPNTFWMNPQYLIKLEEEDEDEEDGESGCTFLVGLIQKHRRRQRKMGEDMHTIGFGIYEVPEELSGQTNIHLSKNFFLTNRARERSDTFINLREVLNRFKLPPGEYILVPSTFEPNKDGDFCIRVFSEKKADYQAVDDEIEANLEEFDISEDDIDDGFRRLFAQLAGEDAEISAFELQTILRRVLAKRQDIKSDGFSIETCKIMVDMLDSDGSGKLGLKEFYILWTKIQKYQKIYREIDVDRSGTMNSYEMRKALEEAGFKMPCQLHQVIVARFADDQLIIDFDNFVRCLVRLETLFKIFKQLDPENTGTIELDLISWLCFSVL
T1 sequence (P04632 1-268 partner): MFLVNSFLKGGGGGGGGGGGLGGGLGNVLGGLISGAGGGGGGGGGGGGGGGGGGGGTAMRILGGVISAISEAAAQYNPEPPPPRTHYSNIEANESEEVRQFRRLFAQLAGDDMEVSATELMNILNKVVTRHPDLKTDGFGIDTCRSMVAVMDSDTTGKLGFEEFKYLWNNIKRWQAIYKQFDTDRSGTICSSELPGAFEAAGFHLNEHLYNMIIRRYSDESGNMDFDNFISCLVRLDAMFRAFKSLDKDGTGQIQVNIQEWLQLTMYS
Description: (§1) Calpain 1, 2, and 9 activity and inhibition thereof are assessed by means of a continuous fluorescence assay. The SensoLyte 520 Calpain substrate (Anaspec Inc) is optimized for detecting calpain activity. This substrate contains a novel internally quenched 5-FAM/QXL™ 520 FRET pair. Calpains 1, 2, and 9 cleave the FRET substrate into two separate fragments resulting in an increase of 5-FAM fluorescence that is proportional to calpain activity.
(§2) Assays are typically setup in black 384-well plates using automated liquid handling as follows. Calpain assay base buffer typically contains 50 mM Tris, pH 7.5, 100 mM NaCl and 1 mM DTT. Inhibitors are serially diluted in DMSO and used to setup 2× mixtures with calpains in the aforementioned buffer. After incubation at ambient temperature (25 C), the reaction is initiated by adding a 2× mix of the fluorescent peptide substrate and CaCl2 (required for in-situ calpain activation) in the same buffer. Reaction progress curve data are typically collected for 10 min using excitation/emission wavelengths of 490 nm/520 nm on SpectraMax i3x or the FLIPR-Tetra plate readers (Molecular Devices Inc). Reaction rates were calculated from progress curve slopes typically over 1-5 min. Dose response curves (rate vs. log inhibitor concentration) were typically fit to a 4-parameter logistic function to extract IC50 values.

[2] = test system: calpain activity in SH-SY5Y cells; assay: SH-SY5Y cellular calpain activity, Suc-LLVY-AMC fluorescence assay; type: cell-based; details: Suc-LLVY-AMC substrate
Description: Calpain activity in SH-SY5Y cells and inhibition thereof were assessed by means of a homogeneous, fluorescence assay that uses the cell-permeable and pro-fluorescent calpain substrate Suc-LLVY-AMC (Sigma-Aldrich Inc). Upon intracellular calpain cleavage of Suc-LLVY-AMC, fluorescent amino-methyl-coumarin (AMC) is released into the media resulting in a continuous increase in fluorescence signal that is proportional to intra-cellular calpain activity.
Assays were typically setup by seeding SH-SY5Y cells in black 384-well plates at 40 k/per well in RPMI-1640 containing 1% serum followed by 37 C overnight incubation. Next morning, cells were pre-incubated for 30 min with serially diluted compounds followed by addition of 100 uM of Suc-LLVY-AMC substrate. The continuous increase in AMC fluorescence is monitored using a FLIPR, Tetra plate reader (Molecular Devices Inc) and slopes measured to report calpain activity. Dose response curves (slopes vs. log inhibitor concentration) were typically fit to a 4-parameter logistic function to extract IC50 values.

[3] = target: T2, Human Calpain 9/NS1 (Homo sapiens, UniProt O14815); assay: Biochemical inhibition of calpain 9, continuous fluorescence (FRET substrate) assay; details: mean; read-out: Human Calpain 9/NS1 IC50 (nM)_MEAN
T2 sequence (O14815 1-690): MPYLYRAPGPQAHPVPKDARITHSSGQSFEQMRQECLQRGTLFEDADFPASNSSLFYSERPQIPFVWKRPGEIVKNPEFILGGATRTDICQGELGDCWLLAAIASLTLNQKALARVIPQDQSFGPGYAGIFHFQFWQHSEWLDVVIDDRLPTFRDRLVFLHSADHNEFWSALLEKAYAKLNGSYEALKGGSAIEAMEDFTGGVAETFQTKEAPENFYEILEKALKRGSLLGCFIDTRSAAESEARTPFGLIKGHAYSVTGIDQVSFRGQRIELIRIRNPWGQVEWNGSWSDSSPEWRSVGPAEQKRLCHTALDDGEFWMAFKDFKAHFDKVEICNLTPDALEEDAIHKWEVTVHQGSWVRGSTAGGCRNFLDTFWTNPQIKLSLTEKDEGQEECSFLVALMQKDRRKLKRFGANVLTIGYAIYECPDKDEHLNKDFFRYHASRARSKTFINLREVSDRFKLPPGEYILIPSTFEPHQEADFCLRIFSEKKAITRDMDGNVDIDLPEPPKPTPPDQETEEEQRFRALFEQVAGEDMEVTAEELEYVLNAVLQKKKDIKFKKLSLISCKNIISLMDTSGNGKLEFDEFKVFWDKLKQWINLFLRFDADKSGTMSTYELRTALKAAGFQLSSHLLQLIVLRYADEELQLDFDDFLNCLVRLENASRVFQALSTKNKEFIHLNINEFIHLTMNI
T2 sequence (P04632 1-268 partner): T1 sequence (P04632 1-268 partner)
Description: as §1, §2

[4] = test system: calpain activity in SH-SY5Y cells (Spectrin); assay: SH-SY5Y Spectrin cellular calpain inhibition; type: cell-based
[5] = target: T3, Human Calpain 1/NS1 (Homo sapiens, UniProt P07384); assay: Biochemical inhibition of calpain 1, continuous fluorescence (FRET substrate) assay; details: mean; read-out: Human Calpain 1/NS1 IC50 (nM)_MEAN
T3 sequence (P07384 1-714): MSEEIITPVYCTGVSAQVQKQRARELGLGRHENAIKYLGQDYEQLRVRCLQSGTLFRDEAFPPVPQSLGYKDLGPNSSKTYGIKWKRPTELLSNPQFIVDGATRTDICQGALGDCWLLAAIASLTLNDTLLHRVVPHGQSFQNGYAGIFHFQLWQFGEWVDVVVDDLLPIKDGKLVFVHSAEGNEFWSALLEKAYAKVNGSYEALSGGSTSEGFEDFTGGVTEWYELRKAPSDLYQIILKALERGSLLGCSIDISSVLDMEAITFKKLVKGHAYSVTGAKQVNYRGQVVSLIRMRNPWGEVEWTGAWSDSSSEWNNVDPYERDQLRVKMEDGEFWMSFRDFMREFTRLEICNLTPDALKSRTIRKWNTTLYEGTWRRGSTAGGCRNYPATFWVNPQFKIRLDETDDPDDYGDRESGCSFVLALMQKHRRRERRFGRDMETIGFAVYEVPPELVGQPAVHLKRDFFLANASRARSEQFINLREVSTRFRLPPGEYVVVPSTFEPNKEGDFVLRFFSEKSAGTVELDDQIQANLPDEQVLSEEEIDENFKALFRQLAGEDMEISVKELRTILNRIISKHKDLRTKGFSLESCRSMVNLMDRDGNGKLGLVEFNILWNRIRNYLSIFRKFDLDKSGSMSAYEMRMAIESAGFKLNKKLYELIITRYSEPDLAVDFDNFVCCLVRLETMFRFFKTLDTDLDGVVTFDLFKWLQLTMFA
T3 sequence (P04632 1-268 partner): T1 sequence (P04632 1-268 partner)
Description: as §1, §2

Structure (SMILES)	IC50 [1] [nM]	IC50 [2] [µM]	IC50 [3] [nM]	IC50 [4] [µM]	IC50 [5] [nM]
Cn1c2ccccc2c2c(C(=O)NC(Cc3ccccc3)C(=O)C(N)=O)cccc21 (stereo not shown) [Compound 11, N-(4-AMINO-3,4-DIOXO-1-PHENYLBUTAN-2-YL)-9-METHYL-9H-CARBAZOLE-4-CARBOXAMIDE]	< 3000	< 10	< 3000	10 to 25	< 3000
COc1ccc(F)c(C(=O)NC(C=O)Cc2ccccc2)c1Cl (stereo not shown) [Compound 43, 2-CHLORO-6-FLUORO-3-METHOXY-N-(1-OXO-3-PHENYLPROPAN-2-YL)BENZAMIDE]	< 3000	< 10	< 3000	10 to 25	< 3000
O=CC(Cc1ccccc1)NC(=O)c1c(Cl)ccc2ccccc12 (stereo not shown) [Compound 44, 2-CHLORO-N-(1-OXO-3-PHENYLPROPAN-2-YL)-1-NAPHTHAMIDE]	< 3000	< 10	< 3000	< 10	< 3000
O=CC(Cc1ccccc1)NC(=O)c1c(F)cccc1F (stereo not shown) [Compound 40, 2,6-DIFLUDRO-N-(1-OXO-3-PHENYLPROPAN-2-YL)BENZAMIDE]	< 3000	> 25	< 3000	10 to 25	< 3000
COc1ccc(Cl)cc1C(=O)NC(C=O)Cc1ccccc1 (stereo not shown) [Compound 37, 5-CHLORO-2-METHOXY-N-(1-OXO-3-PHENYLPROPAN-2-YL)BENZAMIDE]	< 3000	> 25	> 10000	> 25	3000 to 10000
COc1ccc(Br)cc1C(=O)N[C@@H](Cc1ccccc1)C(=O)C(N)=O [Compound 35, (S)—N-(4-AMINO-3,4-DIOXO-1-PHENYLBUTAN-2-YL)-5-BROMO-2-METHOXYBENZAMIDE]	< 3000	< 10	< 3000	10 to 25	< 3000
NC(=O)C(=O)C(Cc1ccccc1)NC(=O)c1ccc2c(c1)OCO2 (stereo not shown) [Compound 24, N-(4-AMINO-3,4-DIOXO-1-PHENYLBUTAN-2-YL)BENZO[d][1,3]DIOXOLE-5-CARBOXAMIDE]	< 3000		< 3000	> 25	3000 to 10000
O=CC(Cc1ccccc1)NC(=O)c1cccc2c1oc1ccccc12 (stereo not shown) [Compound 46, N-(1-OXO-3-PHENYLPROPAN-2-YL)DIBENZO[b,a]FURAN-4-CARBOXAMIDE]	< 3000	> 25	3000 to 10000	10 to 25	3000 to 10000
NC(=O)C(=O)C(Cc1ccccc1)NC(=O)C1c2ccccc2Oc2ccccc21 (stereo not shown) [Compound 5, N-(4-AMINO-3,4-DIOXO-1-PHENYLBUTAN-2-YL)-9H-XANTHENE-9-CARBOXAMIDE]	< 3000		< 3000	> 25	< 3000

The next lines start with the values.

IC50 [1] [nM]	IC50 [2] [µM]	IC50 [3] [nM]	IC50 [4] [µM]	IC50 [5] [nM]	Structure (SMILES)
< 3000	> 25	< 3000	10 to 25	< 3000	NC(=O)C(=O)[C@H](Cc1ccccc1)NC(=O)c1c(F)cccc1C(F)(F)F [Compound 16, (S)—N-(4-AMINO-3,4-DIOXO-1-PHENYLBUTAIN-2-YL)-2-FLUORO-6-(TRIFLUOROMETHYL)BENZAMIDE]
< 3000	10 to 25	< 3000	10 to 25	< 3000	NC(=O)C(=O)[C@H](Cc1ccccc1)NC(=O)c1c(F)cccc1F [Compound 15, (S)—N-(4-AMINO-3,4-DIOXO-1-PHENYLBUTAN-2-YL)-2,6-DIFLUOROBENZAMIDE]
< 3000	< 10	< 3000	10 to 25	< 3000	NC(=O)C(=O)[C@H](Cc1ccccc1)NC(=O)c1c(F)cccc1I [Compound 27, (S)—N-(4-AMINO-3,4-DIOXO-1-PHENYLBUTAN-2-YL)-2-FLUORO-6-IODOBENZAMIDE]
< 3000	10 to 25	< 3000	10 to 25	< 3000	NC(=O)C(=O)C(Cc1ccccc1)NC(=O)c1c(Cl)ccc2ccccc12 (stereo not shown) [Compound 13, N-(4-AMINO-3,4-DIOXO-1-PHENYLBUTAN-2-YL)-2-CHLORO-1-NAPHTHAMIDE]
< 3000	< 10	< 3000	< 10	< 3000	Cc1ccc(Cl)c(C(=O)N[C@@H](Cc2ccccc2)C(=O)C(N)=O)c1F [Compound 31, (S)—N-(4-AMINO-3,4-DIOXO-1-PHENYLBUTAN-2-YL)-6-CHLORO-2-FLUORO-3-METHYLBENZAMIDE]
< 3000	< 10	< 3000	10 to 25	< 3000	COc1ccc(F)c(C(=O)N[C@@H](Cc2ccccc2)C(=O)C(N)=O)c1Cl [Compound 29, (S)—N-(4-AMINO-3,4-DIOXO-1-PHENYLBUTAN-2-YL)-2-CHLORO-6-FLUORO-3-METHOXYBENZAMIDE]
